Test results reported in publication PMC12817916, “A small-molecule HSP90 inhibitor, NVP-HSP990, alleviates rotavirus infection” (Journal of Virology, 2025).

Assays:
RV (Wa or SA11 strains) = assay: RV replication in Caco-2 cells at varying MOI and timing of drug addition (PFA); format: cell-based, Rotavirus
Method: Rhesus monkey embryo kidney cell line MA104 cells (ATCC: CRL-2378.1) were provided by Dr. Elschner (Friedrich-Loeffler-Institute). Human intestinal epithelial cell lines Caco-2 cells (ATCC: HTB-37) and HT-29 cells (ATCC: HTB-38) were from ATCC and kept in our institute. All the cells were cultured in complete DMEM (Dulbecco’s modified Eagle medium [Gibco, USA] plus 10% [vol/vol] fetal bovine serum [FBS] [Gibco, USA] and 1% penicillin/streptomycin [Gibco, USA]) at 37°C with 5% CO2. RV Wa (G1P[8]) and SA11 (G3P[2]) strains were gifted by Professor Duan Zhaojun from the China Center for Disease Control and Prevention (Beijing, China) and propagated in MA104 cells. RV EDIM strain G16P[16] was gifted by Professor Wan Jianwei in Christophe Merieux Laboratory (Beijing) and propagated in BALB/c suckling mice. For RV infection in vitro, the viruses were diluted in DMEM, activated with 10 µg/mL trypsin (Gibco, USA) for 30 min at 37°C, and then added to target cells previously washed once with DMEM. After 1 h of incubation at 37°C, the inoculum was removed; the cells were then washed twice with DMEM (without FBS) and incubated with DMEM (without FBS) at 37°C, which was denoted as 0 h post-infection (h p.i.). HSP90 inhibitors (NVP-HSP990, GA, and 17-AAG) and Ribavirin (Selleck, USA) were dissolved in DMSO (Sigma, USA). The drugs were administered with indicated concentrations at 0 h p.i. in vitro unless otherwise stated, or orally administered in 10 µL volume using a pipette tip with the indicated quantity plus 90% (vol/vol) corn oil.
(A) Caco-2 cells were infected with RV (Wa or SA11 strains) at varying MOIs (0.001–10), followed by treatment with 100 nM NVP-HSP990 or an equal volume of DMSO (as a control) for 24 h. Viral replication was assessed using PFA. (B) Schematic diagram illustrating the timing of NVP-HSP990 addition and removal. (C) Caco-2 cells were infected with RV (MOI = 1) and treated with 100 nM NVP-HSP990 or with DMSO as control at indicated infection periods as shown in panel B. Viral replication was tested with PFA at 20 h p.i. (D) Caco-2 cells were infected with RV (MOI = 1) and treated with 100 nM HSP990 at 0, 4, 8, 12 h p.i. or treated with DMSO at 0 h p.i. Virus replication was tested with PFA at 24 h p.i. (E) Caco-2 cells were infected with RV (MOI = 1) and further cultivated with DMEM containing 100 nM NVP-HSP990 or DMSO as control for 18 h. Then the infected cells were harvested for qPCR analysis of the expression of RV genes encoding the VP2, VP6, NSP4, and NSP5 proteins. (F) Caco-2 cells were mock-infected with PBS or infected with RV (MOI = 1) and further cultivated with DMEM containing 100 nM NVP-HSP990 or DMSO as control for 18 h. Then the cells were harvested for WB analysis of RV structural proteins VP6 and VP7. […]

HSP90β = settings: targets the N-terminal of HSP90β; cited from earlier work

For COc1cccc(-c2cc(F)ccc2[C@H]2Cc3nc(N)nc(C)c3C(=O)N2)n1 [NVP-HSP990], which “inhibitory effect on RV replication” value (RV (Wa or SA11 strains); 100 nM, administered after RV infection (0 ~ 20 h p.i.), PFA at 20 h p.i.) is on record?
Its value is roughly 100 fold.

What about the “reduction of final level of RV replication” value (RV (Wa or SA11 strains); 100 nM, administered during RV infection (−1 ~ 0 h p.i.), PFA at 20 h p.i.) of the same compound?
Its value is ~ 1 fold.

What about the “inhibition of RV replication across MOIs” value (RV (Wa or SA11 strains); Wa or SA11, MOI 0.001 to 10, 100 nM, 24 h p.i., PFA) of the same compound?
The value was “Robust inhibition”.

And the “establishment of RV infection or subsequent viral replication” value (RV (Wa or SA11 strains); pre-treatment prior to RV infection (−2 ~ −1 h p.i.))?
Its value is “did not significantly interfere”.

And the IC50 (HSP90β)?
Its IC50 is 0.8 nM.
